Reference: patent US11185530B2, “Composition for preventing or treating hearing loss, containing atorvastatin as active ingredient” (AJOU UNIVERSITY INDUSTRY-ACADEMIC COOPERATION FOUNDATION, priority 2017, dated 2021)

What was measured:
HEI-OC1 cells [1] = assay: PI staining and cell morphology analysis of apoptosis; format: cell-based; settings: HEI-OC1, 24 hours, 200 to 800 μM tested
Description: As a cell experiment model that replaces the diabetic mouse model through a high fat/fructose diet, that is, obesity, a cytotoxicity experiment model based on saturated fatty acid palmitate, which is an intermediate product of lipid synthesis that is excessively abundant during obesity, has been devised. HEI-OC1 (house-ear institute-organ of Corti 1), the auditory cell line conducting the major auditory function, was used, and the diabetes-mediated hearing loss cell line model was treated with palmitate.
In order to evaluate apoptosis, 24 hours after HEI-OC1 cells, the auditory cell line, were treated with 200 to 800 μM of palmitate, PI (propidium iodide) staining and the cell morphology thereof were analyzed. As a result, cell apoptosis was induced with a change in cell morphology from the palmitate concentration of 200 μM, and this phenomenon became more apparent as the concentration increased (FIG. 4 in part A).

[2] = tested on: auditory cell line (HEI-OC1); assay: WST-1 assay of cytotoxicity and cell viability; format: cell-based
Description: The effect of palmitate on cytotoxicity and cell viability of the auditory cell line (HEI-OC1) was quantitatively analyzed through a WST-1 assay.
In order to evaluate the function of atorvastatin against the cytotoxicity of palmitate, atorvastatin was pre-treated at each concentration and palmitate was post-treated at each concentration.
The cytotoxic and apoptotic effects of palmitate and the cytoprotective effect of atorvastatin were analyzed using a student's T-test for statistical significance through quantification.

diabetic mouse model = assay: Body weight, blood glucose, glucose tolerance and insulin tolerance in diabetic mouse model; format: in vivo, C57/BL6J male mice; settings: 12-week diabetic mice, 20 mg/kg i.p. once every 2 days for 5 weeks, vs control group
Description: The diabetes-mediated hearing loss model was fed with 60% high fat/30% fructose water for 12 weeks and bred to induce diabetes. The diabetes model was established by measuring blood glucose levels, and testing glucose tolerance and insulin tolerance once every two weeks for 12 weeks, weighing weekly and conducting food/water intake efficiency tests twice weekly.
The experimental group was divided into an atorvastatin group (n=15, 20 mg/kg) and a control (vehicle) group (n=15, DMSO+normal saline) and intraperitoneal administration was conducted once every 2 days for 5 weeks. During the drug administration period, body weight and food intake efficiency tests were performed. Hearing tests, blood glucose measurement, and glucose and insulin tolerance tests were performed immediately before the end of the administration period.
In addition, body weight, blood glucose level, glucose tolerance and insulin tolerance were measured in the experimental group, obtained by administering atorvastatin to the 12-week diabetic mice, and in the control group. […] All statistical significance was analyzed using one-way ANOVA of SPSS program and student's T-tests.

HEI-OC1 cells [3] = assay: Western blotting of cleaved caspase-3, PARP and AKT phosphorylation; format: cell-based
[4] = tested on: auditory cell line (HEI-OC1); assay: ATP detection luminescence; format: cell-based; settings: total extract of cells, palmitate plus atorvastatin
Description: In addition, the effects of atorvastatin on the protection of cells and on energy metabolisms were evaluated using ATP detection luminescence.

[5] = tested on: cochlea of the diabetic mouse model; assay: H&E staining and immunohistochemistry (DHE, TUNEL) of cochlea of diabetic mouse model; format: in vivo, C57/BL6J male mice
Description: Damage to cochlear hair cells around the base and middle turn (16 kHz) region, fibrocytes of the lateral wall and spiral ganglion cells of the cochlea of the diabetic mouse model established in Example 1 was evaluated through H & E (hematoxylin and eosin) staining and immunohistochemistry.
Then, the auditory cells (cochlear hair cells) were observed through immunohistochemistry.
The spiral ganglion cells were analyzed by H & E staining.
Stria vascularis cells in the lateral wall in the cochlea (inner ear) were analyzed by H & E staining.

[6] = tested on: auditory cell line (HEI-OC1); assay: DCFDA staining of reactive oxygen species; format: cell-based; settings: HEI-OC1, palmitate and atorvastatin
[7] = tested on: auditory cell line (HEI-OC1); assay: TUNEL immunostaining quantified by fluorescence microscopy; format: cell-based; settings: HEI-OC1, combination of palmitate and atorvastatin
[8] = tested on: mouse model of age-related hearing loss; settings: Neuroscience Letters, 2007; cited from earlier work
[9] = tested on: noise-induced hearing loss rat model; settings: low dose, 5 mg/kg; Int J Occup Environ Med, 2016; cited from earlier work
[10] = tested on: breast cancer cell xenograft model; settings: Front. Med. China, 2009; cited from earlier work
obese C57 mice = settings: Lipids in Health and Disease, 2014; cited from earlier work
[11] = atorvastatin-administered diabetic mice

CCCCCCCCCCCCCCCC(=O)O [palmitate]
concentration from which cell apoptosis with change in cell morphology was induced (HEI-OC1 cells [1]): ≥ 200 μM | cytotoxicity (WST-1 cell viability assay) ([2]; 24 hours, palmitate at 100, 200 and 400 μM): 20 to 40%

CC(C)c1c(C(=O)Nc2ccccc2)c(-c2ccccc2)c(-c2ccc(F)cc2)n1CC[C@@H](O)C[C@@H](O)CC(=O)O [atorvastatin]
blood glucose level (diabetic mouse model): significantly improved | body weight (diabetic mouse model): reduced | glucose tolerance (GTT) (diabetic mouse model): significantly improved | insulin tolerance (ITT) (diabetic mouse model): significantly improved | phosphorylation of AKT after treatment with atorvastatin (HEI-OC1 cells [3]; HEI-OC1, by concentration and time): increased | AKT protein phosphorylation under palmitate treatment (HEI-OC1 cells [3]; HEI-OC1, palmitate plus atorvastatin): inhibited the reduction of AKT protein phosphorylation | cytotoxicity, treatment only with atorvastatin ([2]; 250, 500 or 1,000 nM, HEI-OC1): cytotoxicity was not observed | palmitate-induced apoptosis (WST-1 cell viability) ([2]; atorvastatin pre-treated, palmitate post-treated, 24 hours): significantly inhibited | production of mitochondrial energy (ATP) [4]: maintained the production of mitochondrial energy (ATP) | TUNEL expression in spiral ganglion cells [5, 11]: suppressed | apoptosis (TUNEL) of stria vascularis cells [5, 11]: markedly suppressed | enlargement of stria vascularis tissue of the lateral wall (H&E) [5, 11]: not observed | reactive oxygen species in cochlear hair cells (DHE immunohistochemistry) [5, 11]: decreased reactive oxygen species, like normal mice | spiral ganglion cell size and nucleus morphology (H&E) ([5]; atorvastatin-administered diabetic mice vs normal group): larger cell size than that of the normal group, but had no change in nucleus morphology | morphology of cochlear hair cells (H&E) ([5]; diabetic mice administered with atorvastatin): no morphological changes | generation of reactive oxygen species (DCFDA) [6]: statistically significantly inhibit | number of TUNEL-stained cells [7]: statistically decreased | hearing loss in age-related hearing loss model [8]: delaying or inhibiting hearing loss | hearing loss in noise-induced model [9]: statistically significant effect of inhibiting hearing loss | tumor growth and metastasis [10]: inhibit tumor growth and metastasis | obesity-induced type 2 diabetes (obese C57 mice): inhibits obesity-induced type 2 diabetes
